From ChEMBL document CHEMBL4507257, “Data for DCP probe ABT-100” (2021)

Assays:
[1] = tested on: Tyrosine-protein kinase ABL1 (Homo sapiens), P00519 [F317L]; details: Compound concentration 1000.0 nM
[2] = molecular target: Bone morphogenetic protein receptor type-1B (Homo sapiens) (UniProt O00238); details: Compound concentration 1000.0 nM
[3] = molecular target: Calcium/calmodulin-dependent protein kinase type II subunit gamma (Homo sapiens) (UniProt Q13555); details: Compound concentration 1000.0 nM
[4] = molecular target: Cyclin-dependent kinase 8 (Homo sapiens) (UniProt P49336); details: Compound concentration 1000.0 nM
Sequence of Cyclin-dependent kinase 8 (Homo sapiens) (P49336 whole entry): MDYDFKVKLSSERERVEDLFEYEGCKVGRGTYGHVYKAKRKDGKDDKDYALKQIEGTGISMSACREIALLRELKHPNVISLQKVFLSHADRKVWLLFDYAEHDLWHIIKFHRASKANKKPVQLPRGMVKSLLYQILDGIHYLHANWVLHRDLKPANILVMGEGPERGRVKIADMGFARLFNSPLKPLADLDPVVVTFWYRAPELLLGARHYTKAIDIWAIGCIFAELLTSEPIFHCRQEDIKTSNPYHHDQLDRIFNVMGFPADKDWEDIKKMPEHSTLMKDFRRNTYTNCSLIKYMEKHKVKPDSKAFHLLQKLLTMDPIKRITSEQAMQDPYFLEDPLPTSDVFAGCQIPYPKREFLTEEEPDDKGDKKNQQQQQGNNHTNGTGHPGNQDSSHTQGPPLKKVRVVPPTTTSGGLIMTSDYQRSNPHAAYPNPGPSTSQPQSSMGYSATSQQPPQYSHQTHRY

[5] = molecular target: Cyclin-dependent kinase-like 3 (Homo sapiens) (UniProt Q8IVW4); details: Compound concentration 1000.0 nM
Sequence of Cyclin-dependent kinase-like 3 (Homo sapiens) (Q8IVW4 whole entry, looked up): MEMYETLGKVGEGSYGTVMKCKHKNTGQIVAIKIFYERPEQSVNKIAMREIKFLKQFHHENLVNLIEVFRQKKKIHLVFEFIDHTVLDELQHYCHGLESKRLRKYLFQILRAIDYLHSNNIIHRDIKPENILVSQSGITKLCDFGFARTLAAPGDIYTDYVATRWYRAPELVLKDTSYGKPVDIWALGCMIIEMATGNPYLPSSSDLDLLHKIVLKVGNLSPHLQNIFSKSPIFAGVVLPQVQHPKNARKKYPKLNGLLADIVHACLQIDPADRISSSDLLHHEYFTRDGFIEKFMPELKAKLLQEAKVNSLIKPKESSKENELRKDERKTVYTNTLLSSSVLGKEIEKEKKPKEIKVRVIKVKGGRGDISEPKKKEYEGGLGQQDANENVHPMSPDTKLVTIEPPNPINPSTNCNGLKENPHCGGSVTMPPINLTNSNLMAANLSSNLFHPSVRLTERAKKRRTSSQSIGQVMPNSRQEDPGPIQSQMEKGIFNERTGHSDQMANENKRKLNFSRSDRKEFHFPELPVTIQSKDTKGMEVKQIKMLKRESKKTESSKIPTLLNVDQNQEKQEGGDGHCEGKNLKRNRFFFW

[6] = molecular target: Tyrosine-protein kinase CSK (Homo sapiens) (UniProt P41240); details: Compound concentration 1000.0 nM
Sequence of Tyrosine-protein kinase CSK (Homo sapiens) (P41240 2-450 limits assumed): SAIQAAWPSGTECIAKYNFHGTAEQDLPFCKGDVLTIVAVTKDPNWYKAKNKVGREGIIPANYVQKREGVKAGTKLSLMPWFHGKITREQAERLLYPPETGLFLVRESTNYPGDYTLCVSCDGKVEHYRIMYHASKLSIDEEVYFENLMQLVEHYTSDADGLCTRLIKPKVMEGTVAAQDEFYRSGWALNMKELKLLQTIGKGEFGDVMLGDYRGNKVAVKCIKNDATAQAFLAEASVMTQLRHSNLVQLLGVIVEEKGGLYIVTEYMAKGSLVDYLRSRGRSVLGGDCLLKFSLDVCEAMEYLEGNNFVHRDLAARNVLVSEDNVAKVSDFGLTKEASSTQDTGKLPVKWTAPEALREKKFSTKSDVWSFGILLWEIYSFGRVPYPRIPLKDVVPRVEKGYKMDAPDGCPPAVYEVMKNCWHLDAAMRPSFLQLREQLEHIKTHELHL

[7] = molecular target: Dual specificity tyrosine-phosphorylation-regulated kinase 1B (Homo sapiens) (UniProt Q9Y463); details: Compound concentration 1000.0 nM
[8] = tested on: Receptor-type tyrosine-protein kinase FLT3 (Homo sapiens), P36888 [K663Q]; details: Compound concentration 1000.0 nM
[9] = molecular target: Tyrosine-protein kinase JAK1 (Homo sapiens) (UniProt P23458); details: Compound concentration 1000.0 nM
Sequence of Tyrosine-protein kinase JAK1 (Homo sapiens) (P23458 whole entry): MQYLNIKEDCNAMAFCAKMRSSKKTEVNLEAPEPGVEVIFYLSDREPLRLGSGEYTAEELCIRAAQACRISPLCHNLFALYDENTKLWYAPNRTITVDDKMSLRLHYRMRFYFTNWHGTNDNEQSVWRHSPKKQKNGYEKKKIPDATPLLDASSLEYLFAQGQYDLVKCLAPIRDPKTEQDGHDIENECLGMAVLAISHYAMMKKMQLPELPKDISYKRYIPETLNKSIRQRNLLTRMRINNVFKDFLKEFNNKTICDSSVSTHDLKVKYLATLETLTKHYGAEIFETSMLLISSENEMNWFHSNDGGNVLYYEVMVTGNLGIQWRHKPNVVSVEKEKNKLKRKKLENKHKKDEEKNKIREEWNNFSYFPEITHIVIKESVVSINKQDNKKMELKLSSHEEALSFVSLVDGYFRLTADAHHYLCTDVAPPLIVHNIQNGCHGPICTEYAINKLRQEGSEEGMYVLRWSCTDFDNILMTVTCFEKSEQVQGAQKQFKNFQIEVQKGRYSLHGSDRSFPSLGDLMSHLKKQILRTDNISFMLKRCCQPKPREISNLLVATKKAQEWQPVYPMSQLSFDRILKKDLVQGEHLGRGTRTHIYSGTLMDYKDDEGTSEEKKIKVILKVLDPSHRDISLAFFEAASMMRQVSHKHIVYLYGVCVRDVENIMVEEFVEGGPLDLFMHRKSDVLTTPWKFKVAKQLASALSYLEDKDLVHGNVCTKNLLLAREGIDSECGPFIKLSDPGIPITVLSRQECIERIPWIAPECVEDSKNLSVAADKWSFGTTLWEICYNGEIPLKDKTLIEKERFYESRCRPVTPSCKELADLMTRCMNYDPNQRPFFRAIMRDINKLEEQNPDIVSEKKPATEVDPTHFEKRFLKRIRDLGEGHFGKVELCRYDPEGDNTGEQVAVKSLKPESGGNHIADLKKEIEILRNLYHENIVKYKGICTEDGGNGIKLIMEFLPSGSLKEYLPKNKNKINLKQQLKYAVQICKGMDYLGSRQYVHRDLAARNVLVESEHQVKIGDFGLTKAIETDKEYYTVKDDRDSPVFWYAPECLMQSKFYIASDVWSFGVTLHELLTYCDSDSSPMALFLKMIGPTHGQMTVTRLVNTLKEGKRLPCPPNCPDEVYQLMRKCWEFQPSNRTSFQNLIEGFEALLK

[10] = molecular target: Mitogen-activated protein kinase kinase kinase kinase 3 (Homo sapiens) (UniProt Q8IVH8); details: Compound concentration 1000.0 nM
[11] = molecular target: Cyclin-dependent kinase 16 (Homo sapiens) (UniProt Q00536); details: Compound concentration 1000.0 nM
[12] = molecular target: Serine/threonine-protein kinase N2 (Homo sapiens) (UniProt Q16513); details: Compound concentration 1000.0 nM
[13] = molecular target: Protein kinase C delta type (Homo sapiens) (UniProt Q05655); details: Compound concentration 1000.0 nM
[14] = molecular target: Serine/threonine-protein kinase D1 (Homo sapiens) (UniProt Q15139); details: Compound concentration 1000.0 nM
[15] = molecular target: Proto-oncogene tyrosine-protein kinase receptor Ret (Homo sapiens) (UniProt P07949); details: Compound concentration 1000.0 nM
Sequence of Proto-oncogene tyrosine-protein kinase receptor Ret (Homo sapiens) (P07949 whole entry): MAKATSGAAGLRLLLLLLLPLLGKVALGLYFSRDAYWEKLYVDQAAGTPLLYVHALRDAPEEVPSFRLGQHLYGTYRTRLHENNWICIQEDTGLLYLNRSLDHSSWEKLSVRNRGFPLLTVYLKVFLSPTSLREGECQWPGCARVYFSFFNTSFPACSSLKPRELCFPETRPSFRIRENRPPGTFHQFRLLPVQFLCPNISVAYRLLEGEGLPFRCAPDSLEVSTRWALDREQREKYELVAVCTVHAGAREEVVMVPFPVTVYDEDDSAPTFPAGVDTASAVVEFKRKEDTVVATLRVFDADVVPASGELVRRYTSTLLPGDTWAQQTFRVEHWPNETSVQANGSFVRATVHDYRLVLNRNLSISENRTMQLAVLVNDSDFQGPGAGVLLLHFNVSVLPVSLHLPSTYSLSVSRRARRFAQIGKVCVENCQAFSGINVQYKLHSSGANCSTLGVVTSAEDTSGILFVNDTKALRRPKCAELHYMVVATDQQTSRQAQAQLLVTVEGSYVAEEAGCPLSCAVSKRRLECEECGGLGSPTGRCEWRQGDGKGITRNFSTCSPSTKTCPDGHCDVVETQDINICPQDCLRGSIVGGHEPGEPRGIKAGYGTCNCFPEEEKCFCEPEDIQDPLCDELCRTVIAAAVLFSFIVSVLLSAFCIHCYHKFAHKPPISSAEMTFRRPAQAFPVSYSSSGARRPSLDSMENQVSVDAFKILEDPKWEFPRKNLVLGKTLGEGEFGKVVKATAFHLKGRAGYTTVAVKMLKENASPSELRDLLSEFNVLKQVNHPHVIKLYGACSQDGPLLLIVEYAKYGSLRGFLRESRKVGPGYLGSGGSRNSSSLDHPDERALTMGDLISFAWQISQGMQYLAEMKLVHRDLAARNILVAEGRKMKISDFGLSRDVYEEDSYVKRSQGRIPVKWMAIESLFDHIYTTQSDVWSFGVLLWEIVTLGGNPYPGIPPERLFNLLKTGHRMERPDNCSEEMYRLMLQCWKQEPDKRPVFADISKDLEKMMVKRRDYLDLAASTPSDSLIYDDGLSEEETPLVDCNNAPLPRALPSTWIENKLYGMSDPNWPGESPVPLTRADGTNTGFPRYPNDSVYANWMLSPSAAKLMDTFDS

[16] = tested on: Proto-oncogene tyrosine-protein kinase receptor Ret (Homo sapiens), P07949 [M918T]; details: Compound concentration 1000.0 nM
Sequence of Proto-oncogene tyrosine-protein kinase receptor Ret (Homo sapiens), P07949 [M918T] (P07949 whole entry M918T): as the sequence (P07949 whole entry) above, with M918T counted along it

[17] = molecular target: Receptor-interacting serine/threonine-protein kinase 2 (Homo sapiens) (UniProt O43353); details: Compound concentration 1000.0 nM
Sequence of Receptor-interacting serine/threonine-protein kinase 2 (Homo sapiens) (O43353 whole entry): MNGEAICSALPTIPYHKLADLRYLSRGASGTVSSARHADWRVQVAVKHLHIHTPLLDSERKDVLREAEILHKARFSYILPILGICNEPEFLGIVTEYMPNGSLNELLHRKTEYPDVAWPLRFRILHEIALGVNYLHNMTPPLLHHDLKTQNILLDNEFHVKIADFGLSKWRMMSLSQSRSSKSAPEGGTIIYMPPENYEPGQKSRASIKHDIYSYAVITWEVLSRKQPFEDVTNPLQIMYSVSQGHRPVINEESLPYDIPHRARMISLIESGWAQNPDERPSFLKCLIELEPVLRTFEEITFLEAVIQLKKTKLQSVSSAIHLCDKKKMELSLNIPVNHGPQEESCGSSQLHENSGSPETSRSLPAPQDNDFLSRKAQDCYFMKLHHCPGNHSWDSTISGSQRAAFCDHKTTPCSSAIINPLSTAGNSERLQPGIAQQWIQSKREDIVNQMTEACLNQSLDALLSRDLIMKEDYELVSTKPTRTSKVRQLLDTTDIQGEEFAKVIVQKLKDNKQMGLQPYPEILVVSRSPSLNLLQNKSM

[18] = molecular target: Sodium-dependent serotonin transporter (Homo sapiens) (UniProt P31645); details: Compound concentration 10.0 uM
[19] = molecular target: Beta-2 adrenergic receptor (Homo sapiens) (UniProt P07550); assay: beta2 (h) Ligand binding assay; details: Compound concentration 10.0 uM
[20] = molecular target: GABA-A receptor; anion channel (Homo sapiens) (UniProt P14867+P47870+P18507+P28472+P48169+Q99928+Q9UN88+P34903+O00591+O14764+Q8N1C3+P18505+P78334+P47869+P31644+Q16445); assay: BZD (central) Ligand binding assay; type: protein-complex assay; details: Compound concentration 10.0 uM
[21] = molecular target: Translocator protein (Rattus norvegicus) (UniProt P16257); assay: BZD (peripheral) Ligand binding assay; details: Compound concentration 10.0 uM
[22] = molecular target: D(2) dopamine receptor (Homo sapiens) (UniProt P14416); assay: D2 (h) Ligand binding assay; details: Compound concentration 10.0 uM
[23] = molecular target: Sodium-dependent dopamine transporter (Homo sapiens) (UniProt Q01959); assay: DA uptake (h) Ligand binding assay
Sequence of Sodium-dependent dopamine transporter (Homo sapiens) (Q01959 whole entry): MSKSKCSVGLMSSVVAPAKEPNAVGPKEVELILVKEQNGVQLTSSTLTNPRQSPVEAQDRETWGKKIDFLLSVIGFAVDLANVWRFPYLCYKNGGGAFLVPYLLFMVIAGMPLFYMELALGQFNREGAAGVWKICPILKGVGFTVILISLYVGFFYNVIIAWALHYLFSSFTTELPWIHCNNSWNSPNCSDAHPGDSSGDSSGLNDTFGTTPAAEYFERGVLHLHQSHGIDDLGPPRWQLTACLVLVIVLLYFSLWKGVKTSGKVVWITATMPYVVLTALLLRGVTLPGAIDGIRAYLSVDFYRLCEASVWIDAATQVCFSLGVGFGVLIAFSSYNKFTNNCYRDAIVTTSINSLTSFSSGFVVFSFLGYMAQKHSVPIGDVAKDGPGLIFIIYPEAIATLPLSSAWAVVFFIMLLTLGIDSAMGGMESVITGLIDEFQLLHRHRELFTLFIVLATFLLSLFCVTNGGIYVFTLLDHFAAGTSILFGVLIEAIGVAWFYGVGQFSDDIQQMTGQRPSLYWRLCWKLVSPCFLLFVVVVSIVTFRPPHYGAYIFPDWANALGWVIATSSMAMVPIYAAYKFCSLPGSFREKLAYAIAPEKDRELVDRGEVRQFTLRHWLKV

[24] = molecular target: C-X-C chemokine receptor type 1 (Homo sapiens) (UniProt P25024); assay: IL-8A (h) (CXCR1) Ligand binding assay; details: Compound concentration 10.0 uM
[25] = molecular target: Muscarinic acetylcholine receptor M3 (Homo sapiens) (UniProt P20309); assay: M3 (h) Ligand binding assay; details: Compound concentration 10.0 uM
[26] = molecular target: T1, Muscarinic acetylcholine receptor M4 (Homo sapiens) (UniProt P08173); assay: M4 (h) Ligand binding assay; details: Compound concentration 10.0 uM
T1 sequence (whole entry): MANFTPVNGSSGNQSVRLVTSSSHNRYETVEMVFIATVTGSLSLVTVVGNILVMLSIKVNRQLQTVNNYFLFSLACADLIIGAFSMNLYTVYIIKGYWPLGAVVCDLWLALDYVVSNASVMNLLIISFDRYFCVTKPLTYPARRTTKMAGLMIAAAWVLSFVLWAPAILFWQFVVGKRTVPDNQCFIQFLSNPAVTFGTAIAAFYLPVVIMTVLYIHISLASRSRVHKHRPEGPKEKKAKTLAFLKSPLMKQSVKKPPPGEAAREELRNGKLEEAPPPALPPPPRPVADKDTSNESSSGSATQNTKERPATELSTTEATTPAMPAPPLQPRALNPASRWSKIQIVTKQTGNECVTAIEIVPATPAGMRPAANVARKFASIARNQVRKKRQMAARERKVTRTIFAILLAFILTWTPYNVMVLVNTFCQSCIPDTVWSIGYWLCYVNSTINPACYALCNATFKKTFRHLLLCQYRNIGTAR

[27] = molecular target: Mu-type opioid receptor (Homo sapiens) (UniProt P35372); assay: Mu (h) Ligand binding assay; details: Compound concentration 10.0 uM
[28] = molecular target: T2, 5-hydroxytryptamine receptor 1A (Homo sapiens) (UniProt P08908); assay: 5-HT1A (h) Ligand binding assay; details: Compound concentration 10.0 uM
T2 sequence (whole entry): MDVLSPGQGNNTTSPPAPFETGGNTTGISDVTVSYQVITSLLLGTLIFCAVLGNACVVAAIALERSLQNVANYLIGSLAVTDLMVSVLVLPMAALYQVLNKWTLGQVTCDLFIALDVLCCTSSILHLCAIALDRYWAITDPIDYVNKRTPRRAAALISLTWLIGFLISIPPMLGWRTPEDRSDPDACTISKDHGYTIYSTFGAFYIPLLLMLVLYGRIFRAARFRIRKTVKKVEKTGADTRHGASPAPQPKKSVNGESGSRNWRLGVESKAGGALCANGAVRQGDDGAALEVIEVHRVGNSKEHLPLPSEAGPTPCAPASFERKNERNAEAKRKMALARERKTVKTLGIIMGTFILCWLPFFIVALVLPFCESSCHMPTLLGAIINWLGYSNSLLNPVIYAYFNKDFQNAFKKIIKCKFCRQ

[29] = molecular target: 5-hydroxytryptamine receptor 1B (Homo sapiens) (UniProt P28222); assay: 5-HT1B Ligand binding assay; details: Compound concentration 10.0 uM
[30] = molecular target: 5-hydroxytryptamine receptor 7 (Homo sapiens) (UniProt P34969); assay: 5-HT7 (h) Ligand binding assay; details: Compound concentration 10.0 uM
[31] = molecular target: Calcium-activated potassium channel (Homo sapiens) (UniProt Q92952+Q9UGI6+Q12791+O15554+Q9H2S1+A8MYU2); assay: K+ channel (Ca2+ - dependent) Ligand binding assay; type: protein assay; details: Compound concentration 10.0 uM
[32] = molecular target: Atrial natriuretic peptide receptor 1 (Homo sapiens) (UniProt P16066); assay: ANP Ligand binding assay; details: Compound concentration 10.0 uM

| Compound | residual activity [1] [%] | residual activity [2] [%] | residual activity [3] [%] | residual activity [4] [%] | residual activity [5] [%] | residual activity [6] [%] | residual activity [7] [%] | residual activity [8] [%] | residual activity [9] [%] | residual activity [10] [%] | residual activity [11] [%] | residual activity [12] [%] | residual activity [13] [%] | residual activity [14] [%] | residual activity [15] [%] | residual activity [16] [%] | residual activity [17] [%] | inhibition [18] [%] | further results |
| --- | --- | --- | --- | --- | --- | --- | --- | --- | --- | --- | --- | --- | --- | --- | --- | --- | --- | --- | --- |
| Cn1cncc1[C@@](O)(COc1ccc(C#N)cc1-c1ccc(OC(F)(F)F)cc1)c1ccc(C#N)cc1 [A-108] | 100 | 96 | 98 | 100 | 81 | 100 | 38 | 64 | 92 | 100 | 85 | 85 | 100 | 98 | 100 | 98 | 100 | -7.91 | – |
| Cn1cncc1[C@](O)(COc1ccc(C#N)cc1-c1ccc(OC(F)(F)F)cc1)c1ccc(C#N)cc1 [ABT-100] | 100 | 77 | 94 | 66 | 87 | 82 | 58 | 90 | 70 | 100 | 100 | 100 | 66 | 99 | 94 | 95 | 100 | 1.25 | inhibition [19]: 10%; inhibition [20]: < 10%; inhibition [21]: 36%; inhibition [22]: 12%; inhibition ([23]; Compound concentration 1.0 uM): 21%; inhibition ([23]; Compound concentration 3.0 uM): 41%; inhibition ([23]; Compound concentration 10.0 uM): 75%; inhibition [24]: < 10%; inhibition [25]: < 10%; inhibition [26]: < 10%; inhibition [27]: 18%; inhibition [28]: 18%; inhibition [29]: < 10%; inhibition [30]: 22%; inhibition [31]: < 10%; inhibition [32]: < 10% |
